In US20180362598A1 (priority 2016, published 2018):

tested on: insect gut protease (X condition); type: biochemical

Question: How did the “% of Max Slope X” value turn out when IFVALKGS was run?
Answer: 69%

Question: Which “% of Max Slope X” value does the source give for LFVALKGS here?
Answer: 92%

Question: Which “% of Max Slope X” value does the source give for LFVRLRGS here?
Answer: 94%

Question: For LKLFVGS, which “% of Max Slope X” value is on record?
Answer: 98%

Question: LRLFVGS was tested. Which “% of Max Slope X” value did it give?
Answer: 74%
